# Experiments:
# [1] = Water solubility / dispersibility of the synthesized substance; type: physicochemical; conditions: semi solid creamy substance as synthesized
# [2] = system: Bacillus subtilis (ATCC 6633); assay: Evaluation of antimicrobial activity, B. subtilis; type: cell-based; conditions: 10 mg/10 ml
# [3] = system: Vero CCL-81 cells
# [4] = Oral toxicity LD50, rat; type: in vivo
# [5] = system: PI-3 virus (enveloped virus); type: cell-based, Bovine parainfluenza virus
# [6] = system: SARS CoV-2 NIV2020-770 isolate; type: cell-based; conditions: 72 hours
# [7] = system: Escherichia coli (ATCC 8739); assay: Evaluation of antimicrobial activity, E. coli; type: cell-based; conditions: 10 mg/10 ml
# [8] = system: Staphylococcus aureus (ATCC 6538); assay: Evaluation of antimicrobial activity, S. aureus; type: cell-based; conditions: 10 mg/10 ml
# [9] = system: avian influenza; set-up: species or system poultry birds; conditions: in vivo
# [10] = Oral toxicity LD50, mice; type: in vivo
structure (smiles),measurement,setting,value
"CCCCCCCCCCCCCCCCC(=O)OC(O)CO (stereo not shown) [Formula II, 1,2-dihydroxyethyl heptadecanoate]",solubility in water,[1],water soluble and/or water dispersible
same,% reduction after 30 seconds,"[2]; contact 30 seconds, inoculum 76000000 Cfu/ml",27.63%
same,% reduction after 1 minute,[2]; contact 1 minute,44.74%
same,% reduction after 5 minutes,[2]; contact 5 minutes,59.21%
same,% reduction after 10 minutes,[2]; contact 10 minutes,65.79%
same,% reduction after 20 minutes,[2]; contact 20 minutes,99.9789%
same,cytotoxicity,[3],Dose dependent cytotoxicity
same,CC50,[3]; 72 hours,600 fold dilution
same,LD 50,[4],4000 mg per kg wt
same,% Log reduction,[5],99.25%
same,Log10 Reduction,[5],2.12 Log10
same,Virus Titer (Log10 TCID50/mL),[5],2.50 Log10 TCID50/mL
same,inhibition of the RdRp-2 gene,[6],~40%
same,% reduction after 30 seconds,"[7]; contact 30 seconds, inoculum 70000000 Cfu/ml",31.43%
same,% reduction after 1 minute,[7]; contact 1 minute,55.71%
same,% reduction after 5 minutes,[7]; contact 5 minutes,60%
same,% reduction after 10 minutes,[7]; contact 10 minutes,64.29%
same,% reduction after 20 minutes,[7]; contact 20 minutes,99.9851%
same,% reduction after 30 seconds,"[8]; contact 30 seconds, inoculum 74000000 Cfu/ml",31.08%
same,% reduction after 1 minute,[8]; contact 1 minute,43.24%
same,% reduction after 5 minutes,[8]; contact 5 minutes,54.05%
same,% reduction after 10 minutes,[8]; contact 10 minutes,62.16%
same,% reduction after 20 minutes,[8]; contact 20 minutes,99.9627%
same,reduction in mortality of avian influenza infected birds,[9],92%
same,LD 50,[10],4000 mg per kg wt

# — patent US12281070B2, “Water soluble antiviral and antimicrobial compound and process for preparation thereof” (priority 2020, dated 2025)
